Source: PMC9866630, “Synthesis, Biological Evaluation and Molecular Modeling Studies of Naphthoquinone Sulfonamides and Sulfonate Ester Derivatives as P2X7 Inhibitors” (Molecules, 2023)

Experiments:
[1] = target: T1, P2X7 receptor (Mus musculus, UniProt Q9Z1M0); experiment: ATP-induced propidium iodide dye uptake assay (P2X7R-associated pore formation); type: cell-based; conditions: pretreatment 10 min, 5 mM ATP 15 min, peritoneal macrophages; for Inhibition of ATP-induced PI uptake / inhibition at 10 µM: 10 µM; for inhibition at 10 µM: P2X7, read-out: Inhibition of ATP-induced PI uptake; for IC50: read-out: IC50 ATP-induced PI uptake
T1 construct: P2X7 receptor expressed in peritoneal macrophages; endogenous in cells; host or cells: mouse peritoneal macrophages (primary)
T1 sequence (Q9Z1M0 1-595): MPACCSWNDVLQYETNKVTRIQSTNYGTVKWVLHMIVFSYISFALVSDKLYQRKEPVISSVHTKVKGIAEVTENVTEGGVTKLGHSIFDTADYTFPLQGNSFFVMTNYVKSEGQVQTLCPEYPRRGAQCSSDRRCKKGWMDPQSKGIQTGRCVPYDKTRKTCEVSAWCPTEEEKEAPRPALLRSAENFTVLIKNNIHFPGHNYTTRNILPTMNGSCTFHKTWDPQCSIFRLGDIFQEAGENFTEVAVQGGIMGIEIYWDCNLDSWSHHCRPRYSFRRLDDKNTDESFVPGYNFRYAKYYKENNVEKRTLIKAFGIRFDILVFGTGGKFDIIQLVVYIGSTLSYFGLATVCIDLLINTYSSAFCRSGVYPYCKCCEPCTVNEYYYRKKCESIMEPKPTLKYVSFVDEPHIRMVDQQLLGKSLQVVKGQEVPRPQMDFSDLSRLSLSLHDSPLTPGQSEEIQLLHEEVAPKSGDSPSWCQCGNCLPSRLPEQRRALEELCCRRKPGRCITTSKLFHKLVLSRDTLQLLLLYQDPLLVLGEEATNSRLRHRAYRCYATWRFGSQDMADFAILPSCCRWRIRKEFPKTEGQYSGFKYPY
Experimental: (§1) The animals used in these experiments were furnished by the animal breeding unit at Pavilion Hélio and Peggy Pereira at FIOCRUZ/IOC. The Institutional Animal Ethics Committee approved all experimental protocols under number L039-2016. Peritoneal macrophages were isolated from euthanized mice (weighing between 20 and 30 g) by injection of 10 mL phosphate-buffered saline (PBS) into the peritoneum of each animal. Then, the solution was completely removed from the peritoneal cavity using a syringe and transferred to 50 mL sterile tubes. Tubes were centrifuged at 1500 rpm for 5 min. The supernatant was discarded, and the pellet was resuspended in RPMI medium supplemented with 10% SFB and 1% antibiotic. The cells were counted and seeded in plates. After 40 min, the supernatant from each well was discarded to remove cells other than macrophages, and then RPMI medium was added. The macrophages were maintained in RPMI medium supplemented with 10% SFB and 1% antibiotic in a humid atmosphere at 37 °C containing 5% CO2 during the experiments.
To evaluate P2X7R-associated pore formation, a propidium iodide (PI) uptake assay was used. Peritoneal macrophages (3.0 × 10^5/well) were incubated with naphthoquinone derivatives and the inhibitor BBG (Brilliant Blue G, Sigma-Aldrich) at 10 µM and 750 nM, respectively, for 10 min. Subsequently, cells were exposed to 5 mM ATP for 15 min, and in the last 5 min, they were incubated with 1 µM PI dye. At the end of the incubation period, fluorescence was measured using a SpectraMax M5 spectrophotometer at 493/636 nm (excitation/emission). Compounds with inhibition values higher than 50% were selected to evaluate their inhibitory activity at varying concentrations. The inhibition curve was obtained using compounds at concentrations of 0.01 µM, 1 µM, 10 µM, 50 µM, and 100 µM. The controls and the procedure were the same.

[2] = tested on: ATP-induced paw edema; experiment: ATP-induced paw edema assay; type: in vivo, Swiss Webster mice; conditions: mice, intraperitoneal pretreatment, intra-plantar ATP, edema measured 30 min after ATP
Experimental: Paw edema in mice was induced by intra-plantar administration of ATP (10 mg/paw) for 30 min. Animals were pretreated intraperitoneally with the standard P2X7R antagonist A740003 (1 mg/kg) and the selected compounds PS01, PS02, PS03, PS09, and PS10 (1 mg/kg) for 60 min before ATP administration. Edema formation was determined with a mouse plethysmometer (UGO Basile, Gemonio, Italy) before ATP injection compared with saline injection in the contralateral paw edema.

[3] = target: T2, hP2X7R (Homo sapiens, UniProt Q99572); experiment: ATP-induced IL-1β release ELISA in THP-1 cells; type: cell-based; conditions: human THP-1 cells, LPS 4 h, ATP 30 min
T2 construct: The monocytic THP-1 cell line used in this experiment was donated; endogenous in cells; host or cells: THP-1 human monocytic cell line
T2 sequence (Q99572 1-595): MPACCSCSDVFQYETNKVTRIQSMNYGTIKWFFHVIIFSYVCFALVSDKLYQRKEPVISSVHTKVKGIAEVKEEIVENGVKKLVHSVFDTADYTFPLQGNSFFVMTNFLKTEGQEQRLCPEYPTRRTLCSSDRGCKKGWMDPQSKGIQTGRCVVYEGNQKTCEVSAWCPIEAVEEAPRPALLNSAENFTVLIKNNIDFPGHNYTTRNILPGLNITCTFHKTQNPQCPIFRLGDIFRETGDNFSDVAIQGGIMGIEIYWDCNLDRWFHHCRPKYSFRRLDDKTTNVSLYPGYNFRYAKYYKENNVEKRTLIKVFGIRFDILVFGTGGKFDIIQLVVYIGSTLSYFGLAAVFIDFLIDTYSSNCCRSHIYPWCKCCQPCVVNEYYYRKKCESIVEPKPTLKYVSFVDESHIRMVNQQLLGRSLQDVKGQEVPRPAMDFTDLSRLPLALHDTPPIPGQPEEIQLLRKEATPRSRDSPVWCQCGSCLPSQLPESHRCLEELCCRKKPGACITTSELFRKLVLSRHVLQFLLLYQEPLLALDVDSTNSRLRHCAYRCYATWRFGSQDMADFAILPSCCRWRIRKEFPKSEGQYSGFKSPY
Experimental: (§2) The monocytic THP-1 cell line used in this experiment was donated by the Laboratory of Applied Pharmacology, Institute of Drug Technology (Farmanguinhos), Rio de Janeiro, Brazil. Cells were plated at 2 × 10^5 cells/well in 96-well culture plates maintained in RPMI containing 10% fetal bovine serum (FBS), penicillin (100 U/mL), and streptomycin ([…]) in a humidified 5% CO2 atmosphere at 37 °C. Then, the cells were primed with Escherichia coli lipopolysaccharide (LPS, serotype 0127: B8) four hours before ATP stimulation for 30 min. Mouse peritoneal macrophages were primed with 10 ng/mL interferon-γ (IFN-γ) for 24 h and posteriorly stimulated with Escherichia coli lipopolysaccharide (LPS, serotype 0127: B8). The P2X7R antagonist A740003 and naphthoquinone derivatives were preincubated for 30 min before ATP addition. IL-1β was determined according to a standard kit (Bioscience, San Diego, CA, USA and Abcam, Cambridge Biomedical Campus, Cambridge, UK).

[4] = target: T3, mP2X7R (Mus musculus, UniProt Q9Z1M0); experiment: ATP-induced IL-1β release ELISA in mouse peritoneal macrophages; type: cell-based; conditions: LPS priming, ATP 30 min
T3 construct: P2X7 receptor expressed in peritoneal macrophages; endogenous in cells; host or cells: mouse peritoneal macrophages (primary)
T3 sequence (Q9Z1M0 1-595): T1 sequence (Q9Z1M0 1-595)
Experimental: as §2

[5] = tested on: mouse peritoneal cells; experiment: LDH release cytotoxicity assay; type: cell-based; conditions: 24 h, increasing concentrations
Experimental: as §1
Peritoneal macrophages (3.0 × 10^5 cells/well) were grown in 96-well plates and kept in an oven at 37 °C under a 5% CO2 atmosphere. […] The assay was finished by the addition of the LDH kit’s reagent (Kit CytoTox 96® Non-Radioactive Cytotoxicity Assay, Promega, Madison, WI, USA), prepared according to the manufacturer’s instructions. After 30 min of reaction, a stop solution was added, and the absorbance was measured at 490 nm.

[6] = tested on: P2X7R; parameters: method as in PMID 24314880; conditions: read-out: EC50 for P2X7R activation; cited from earlier work

Inhibition of ATP-induced PI uptake [1] | IC50 [3] | IC50 [4] | SMILES | further results
did not show inhibitory effects | – | – | Cc1ccc(S(=O)(=O)Oc2cccc3c2C(=O)C(N)=CC3=O)cc1 [PS12] | –
– | 4 ± 2 µM | 5 ± 1 µM | O=C1C=C(Nc2ccc(NS(=O)(=O)c3ccccc3)cc2)C(=O)c2ccccc21 [PS01] | ID50 ATP−induced edema formation [2]: 0.128 ± 0.016 µg/kg; IC50 values (CC50), LDH activity [5]: 201000 ± 11000 nM; inhibition at 10 µM [1]: > 50%; IC50 [1]: 1000 ± 100 nM
did not show inhibitory effects | – | – | O=C1C=C(Nc2ccc(NS(=O)(=O)c3ccc([N+](=O)[O-])cc3)cc2)C(=O)c2ccccc21 [PS05] | –
did not show inhibitory effects | – | – | Cc1ccc(S(=O)(=O)Nc2ccc(NC3=C(Cl)C(=O)c4ccccc4C3=O)cc2)cc1 [PS07] | –
did not show inhibitory effects | – | – | NC1=CC(=O)c2cccc(OS(=O)(=O)c3ccc4ccccc4c3)c2C1=O [PS14] | –
did not show inhibitory effects | – | – | NC1=CC(=O)c2cccc(OS(=O)(=O)c3ccc([N+](=O)[O-])cc3)c2C1=O [PS15] | –
– | 0.02 ± 0.002 µM | 0.09 ± 0.01 µM | O=C1C(Cl)=C(Nc2ccc(NS(=O)(=O)c3ccc4ccccc4c3)cc2)C(=O)c2ccccc21 [PS09] | ID50 ATP−induced edema formation [2]: 0.0098 ± 0.0007 µg/kg; IC50 values (CC50), LDH activity [5]: 401000 ± 18000 nM; inhibition at 10 µM [1]: > 50%; IC50 [1]: 8 ± 0.1 nM
did not show inhibitory effects | – | – | O=C1C(Cl)=C(Nc2ccc(NS(=O)(=O)c3ccc(F)cc3)cc2)C(=O)c2ccccc21 [PS08] | –
inhibited the ATP effect | 0.85 ± 0.1 µM | 0.9 ± 0.1 µM | COc1ccc(CC(=O)NC(N=C(NC#N)Nc2cccc3ncccc23)C(C)(C)C)cc1OC (stereo not shown) [Compound A740003, reference compound] | –
– | 0.3 ± 0.06 µM | 0.7 ± 0.1 µM | O=C1C(Cl)=C(Nc2ccc(NS(=O)(=O)c3ccc([N+](=O)[O-])cc3)cc2)C(=O)c2ccccc21 [PS10] | ID50 ATP−induced edema formation [2]: 0.0136 ± 0.016 µg/kg; IC50 values (CC50), LDH activity [5]: 351000 ± 21000 nM; inhibition at 10 µM [1]: > 50%; IC50 [1]: 10 ± 2 nM
did not show inhibitory effects | – | – | NC1=CC(=O)c2cccc(OS(=O)(=O)c3ccccc3)c2C1=O [PS11] | –
did not show inhibitory effects | – | – | O=C1C(Cl)=C(Nc2ccc(NS(=O)(=O)c3ccccc3)cc2)C(=O)c2ccccc21 [PS06] | –
– | 1 ± 0.4 µM | 1.5 ± 0.4 µM | Cc1ccc(S(=O)(=O)Nc2ccc(NC3=CC(=O)c4ccccc4C3=O)cc2)cc1 [PS03] | ID50 ATP−induced edema formation [2]: 0.067 ± 0.005 µg/kg; IC50 values (CC50), LDH activity [5]: 322000 ± 20000 nM; inhibition at 10 µM [1]: > 50%; IC50 [1]: 70 ± 3 nM
did not show inhibitory effects | – | – | O=C1C=C(Nc2ccc(NS(=O)(=O)c3ccc4ccccc4c3)cc2)C(=O)c2ccccc21 [PS04] | –
– | 3 ± 0.3 µM | 3 ± 0.2 µM | O=C1C=C(Nc2ccc(NS(=O)(=O)c3ccc(F)cc3)cc2)C(=O)c2ccccc21 [PS02] | ID50 ATP−induced edema formation [2]: 0.093 ± 0.008 µg/kg; IC50 values (CC50), LDH activity [5]: 298000 ± 16000 nM; inhibition at 10 µM [1]: > 50%; IC50 [1]: 300 ± 3 nM
– | 16 ± 2 µM | 24 ± 3 µM | CCOc1ccc(Nc2ccc(/C(=C3C=C/C(=[N+](/CC)Cc4cccc(S(=O)(=O)[O-])c4)C=C/3C)c3ccc(N(CC)Cc4cccc(S(=O)(=O)O)c4)cc3C)cc2)cc1 [BBG, Brilliant Blue G, reference compound] | –
did not show inhibitory effects | – | – | NC1=CC(=O)c2cccc(OS(=O)(=O)c3ccc(F)cc3)c2C1=O [PS13] | –
– | – | – | Nc1ncnc2c1ncn2[C@@H]1O[C@H](COP(=O)(O)OP(=O)(O)OP(=O)(O)O)[C@@H](O)[C@H]1O [ATP, Adenosine triphosphate] | EC50 [6]: > 100000 nM
